Experimental data published in patent US20240300980A1, “HETEROCYCLIC COMPOUNDS AS KRAS INHIBITOR, AND PREPARATION THEREFOR AND USE THEREOF IN TREATMENT” (SHANGHAI KECHOW PHARMA, INC., priority 2021, published 2024).

Test system: AGS cells (KRAS^G12D)
Experiment: Detection of cell proliferation in vitro by MTT/MTS method (cell activity experiment)
Format: cell-based
Conditions: Homo sapiens, AGS, 72 h, AGS cells; MTT/MTS; 3 days of drug treatment; read-out: AGS IC50
Procedure, shortened: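 KRAS G12D AGS cells seeded at 1000 per well, compound added 24 h later, 0.5% final DMSO. Viability read after 3 days of treatment by MTT (solubilised in DMSO) or MTS, 4 h, absorbance 490 nm. IC50 from dose–response curves versus DMSO control.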

C#Cc1c(F)ccc2cc(O)cc(-c3ncc4c(N5C[C@H]6CC[C@@H](C5)N6)c(C(F)(F)F)c(OC[C@@]56CCCN5C[C@H](F)C6)nc4c3F)c12 [Example 196, 4-(4-((1R,5S)-3,8-diazabicyclo[3.2.1]octan-3-yl)-8-fluoro-2-(((2R,7aS)-2-fluorotetrahydro-1H-pyrrolizin-7a(5H)-yl)methoxy)-3-(trifluoromethyl)-1,6-naphthyridin-7-yl)-5-ethynyl-6-fluoronaphthalen-2-ol]
IC50: > 2500 nM

CCc1c(F)ccc2cc(O)cc(-c3ccc4c(N5C[C@H]6CC[C@@H](C5)N6)nc(OCC5(CN6CCCC6)CC5)nc4c3F)c12 [Example 100, 4-(4-((1R,5S)-3,8-diazabicyclo[3.2.1]octan-3-yl)-8-fluoro-2-((1-(pyrrolidin-1-ylmethyl)cyclopropyl)methoxy)quinazolin-7-yl)-5-ethyl-6-fluoronaphthalen-2-ol]
IC50: 21 nM

CCc1c(F)ccc2cc(O)cc(-c3ccc4c(N5C[C@H]6CC[C@@H](C5)N6)nc(OC[C@]56CCCN5[C@@H](COC(=O)N(C)C)CC6)nc4c3)c12 [Example 154, ((3R,7aR)-7a-(((4-((1R, 5S)-3,8-diazabicyclo [3.2.1]octan-3-yl)-7-(8-ethyl-7-fluoro-3-hydroxynaphthalen-1-yl)quinazolin-2-yl)oxy)methyl)hexahydro-1H-pyrrolizin-3-yl) methyl dimethylcarbamate]
IC50: 195 nM

C#Cc1c(F)ccc2cc(O)cc(-c3c4c(c5c(N6C[C@H]7CC[C@@H](C6)N7)nc(OC[C@@]67CCCN6C[C@H](F)C7)nc5c3F)OCO4)c12 [Example 393, 4-(9-((1R,5S)-3,8-diazabicyclo[3.2.1]octan-3-yl)-5-fluoro-7-(((2R,7aS)-2-fluorotetrahydro-1H-pyrrolizin-7a(5H)-yl)methoxy)-[1,3]dioxolo[4,5-f]quinazolin-4-yl)-5-ethynyl-6-fluoronaphthalen-2-ol]
IC50: 70 nM

CCC1CCc2cc(O)cc(-c3c4c(c5c(N6C[C@H]7CC[C@@H](C6)N7)nc(OC[C@@]67CCCN6C[C@H](F)C7)nc5c3F)OCO4)c21 (stereo partly drawn) [Example 394, 7-(9-((1R,5S)-3,8-diazabicyclo[3.2.1]octan-3-yl)-5-fluoro-7-(((2R,7aS)-2-fluorotetrahydro-1H-pyrrolizin-7a(5H)-yl)methoxy)-[1,3]dioxolo[4,5-f]quinazolin-4-yl)-1-ethyl-2,3-dihydro-1H-inden-5-ol]
IC50: 75 nM

CCc1c(F)ccc2cc(O)cc(-c3ccc4c(N5C[C@H]6CC[C@@H](C5)N6)nc(OC[C@]56CCCN5[C@@H](COC(=O)N(C)C)CC6)nc4n3)c12 [Example 146, ((3R,7aR)-7a-(((4-((1R, 5S)-3,8-diazabicyclo [3.2.1]octan-3-yl)-7-(8-ethyl-7-fluoro-3-hydroxynaphthalen-1-yl)pyrido[2,3-d]pyrimidin-2-yl)oxy)methyl)hexahydro-1H-pyrrolizin-3-yl)methyl dimethylcarbamate]
IC50: > 2500 nM
